# Data taken from ChEMBL document CHEMBL1127722, “Aminophosphonic acid containing inhibitors of human collagenase: modification of the P1 residue” (Bioorg Med Chem Lett, 1994).
# pIC50: −log10 of the molar value.
# Target: T1, Interstitial collagenase (Homo sapiens, UniProt P03956)
# T1 sequence (P03956 whole entry): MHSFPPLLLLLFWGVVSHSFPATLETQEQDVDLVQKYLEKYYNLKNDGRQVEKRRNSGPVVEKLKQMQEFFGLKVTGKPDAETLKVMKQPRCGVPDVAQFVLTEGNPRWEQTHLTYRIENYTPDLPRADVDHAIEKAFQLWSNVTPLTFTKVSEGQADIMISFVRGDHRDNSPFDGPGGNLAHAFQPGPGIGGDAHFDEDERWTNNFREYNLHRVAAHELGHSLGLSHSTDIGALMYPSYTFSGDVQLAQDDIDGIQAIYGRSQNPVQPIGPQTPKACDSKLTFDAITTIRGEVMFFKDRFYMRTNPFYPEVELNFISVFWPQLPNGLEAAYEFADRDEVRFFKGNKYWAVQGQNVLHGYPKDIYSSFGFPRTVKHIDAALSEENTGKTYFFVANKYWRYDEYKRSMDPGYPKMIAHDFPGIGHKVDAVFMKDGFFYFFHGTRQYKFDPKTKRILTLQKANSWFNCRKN
# Assay: Inhibition of human fibroblast collagenase
structure (smiles),measurement,value
CNC(=O)[C@H](CC(C)C)NC(=O)[C@H](CC(C)C)CP(=O)(O)CNC(C)=O,pIC50,4.43
CNC(=O)[C@H](Cc1ccccc1)NC(=O)[C@H](CC(C)C)N[C@H](CCN1C(=O)c2cccc3cccc(c23)C1=O)P(=O)(O)O,pIC50,6.82
CNC(=O)[C@H](Cc1ccccc1)NC(=O)[C@H](CC(C)C)NC(CCCN1C(=O)c2cccc3cccc(c23)C1=O)P(=O)(O)O (stereo not given in full),pIC50,6.14
CNC(=O)[C@H](Cc1ccccc1)NC(=O)[C@H](CC(C)C)N[C@@H](CCN1C(=O)c2ccccc2C1=O)P(=O)(O)O,pIC50,6.72
CNC(=O)[C@H](Cc1ccccc1)NC(=O)[C@H](CC(C)C)N[C@@H](CCN1C(=O)c2cccc3cccc(c23)C1=O)P(=O)(O)O,pIC50,7.52
CNC(=O)[C@H](Cc1ccccc1)NC(=O)[C@H](CC(C)C)N[C@@H](CCN1C(=O)c2cccc3c(Br)ccc(c23)C1=O)P(=O)(O)O,pIC50,7.70
CNC(=O)[C@H](Cc1ccccc1)NC(=O)[C@H](CC(C)C)NC(CN1C(=O)c2cccc3cccc(c23)C1=O)P(=O)(O)O (stereo not given in full),pIC50,5.67
CNC(=O)[C@H](Cc1ccccc1)NC(=O)[C@H](CC(C)C)NC(CCN1C(=O)c2cccc3cccc(c23)C1=O)[PH](=O)O (stereo not given in full),pIC50,< 4.00
CNC(=O)[C@H](Cc1ccccc1)NC(=O)[C@H](CC(C)C)N[C@H](CCN1C(=O)c2cccc3c(Br)ccc(c23)C1=O)P(=O)(O)O,pIC50,5.79
CNC(=O)[C@H](Cc1ccccc1)NC(=O)[C@H](CC(C)C)NC(CCN1C(=O)c2ccccc2C1=O)P(=O)(O)O (stereo not given in full),pIC50,6.44
